Literature values as cited in US20070042049A1, “Nanoparticulate benidipine compositions” (Elan Pharma International, Limited, priority 2005, published 2007).
Structures can show the parent of a compound that is named as a salt. Where two headings read alike, the source gives them in different places.

COC(=O)C1=C(C)NC(C)=C(C(=O)O[C@@H]2CCCN(Cc3ccccc3)C2)C1c1cccc([N+](=O)[O-])c1 (stereo in doubt) [Benidipine hydrochloride]
solubility (in acetic anhydride): slightly soluble | solubility (in dimethylformamide): freely soluble | solubility (in ethanol): soluble | solubility (in formic acid): very soluble | solubility (in methanol): soluble | solubility (in water): relatively insoluble
